This note sets out measurements from publication PMC4919066 (PLoS Pathogens, 2016).

Where a name gives a salt, the structure may show the parent alone.

One experiment has as its system HSV1- KOS/Dlux/oriS. Kind of experiment: HSV-1 luciferase assay in HFFs. It is filed as cell-based, herpesvirus 1 (HSV-1). As to conditions: Human alphaherpesvirus 1, read-out: Mean EC50 ± SD. How it is done:
The pp28-luciferase HCMV Towne and a GCV-resistant pp28-luciferase were used. The recombinant viruses express luciferase under the control of the late CMV gene promoter, pp28. Luciferase expression is activated 48–72 hours post infection (hpi). The recombinant viruses provide a highly-sensitive reporter system which correlates with plaque reduction assay. The Towne HCMV strain (ATCC VR-977) was used for plaque reduction, quantitative reverse transcriptase PCR (qRT-PCR), and immunoprecipitation assays. Human herpes virus strains were: luciferase HSV1- KOS/Dlux/oriS [52] and clinical isolates of HSV2. The clinical isolates were provided by the clinical microbiology laboratory with no identifiers that can link to a specific subject. Murid Herpesvirus (MCMV: ATCC VR-1399) was used for infection of mouse embryonic fibroblasts (MEFs) and mice.
Human Foreskin Fibroblasts (HFFs) passage 12–16 (ATCC, CRL-2088) and mouse embryonic fibroblasts (MEFs) passage 9–14 (ATCC, CRL-1658) were grown in Dulbecco's Modified Eagle Medium (DMEM) containing 10% fetal bovine serum (FBS) (Gibco, Carlsbad, CA) in a 5% CO2 incubator at 37°C. […] Luciferase activity was measured 72 h following second cycle infection. […] After incubation at 37°C for 10 days (for HCMV), 3 days for MCMV or 2 days (for HSV), the overlay was removed and plaques were counted after crystal violet staining.

In a further experiment the test system is HCMV Towne. Kind of experiment: Add-on and removal studies, plaque titration. It is filed as cell-based, Human Cytomegalovirus. As to conditions: supernatants at 72 hpi. As for the experimental part:
For time-of-removal studies, medium containing the compounds was removed at 0, 6, 12, 24, 36 and 48 hpi, cells were washed three times with PBS, and drug-free medium was added. Culture supernatants were collected at 72 hpi and titration of infectious virus was performed after 14 days by plaque assay.

Experiment [1] concerns pp28-luciferase HCMV Towne. Kind of experiment: Second cycle infection luciferase assay. It is filed as cell-based, Human Cytomegalovirus. As to conditions: emetine 75 nM. As for the experimental part: (§1) Human Foreskin Fibroblasts (HFFs) passage 12–16 (ATCC, CRL-2088) and mouse embryonic fibroblasts (MEFs) passage 9–14 (ATCC, CRL-1658) were grown in Dulbecco's Modified Eagle Medium (DMEM) containing 10% fetal bovine serum (FBS) (Gibco, Carlsbad, CA) in a 5% CO2 incubator at 37°C. Infection with HCMV or HSV was performed in HFFs, and infection with mouse CMV was performed in MEFs. For HCMV, cells were seeded in either a 96-well plate or 100 mm culture plates (Corning Costar, Sigma Aldrich) at 0.5 or 2 million cells /plate. Following 90 minute adsorption, media was removed and cells were washed with PBS. Media containing 4% FBS and compounds were added to each well. Infected treated HFFs were collected at 72 hpi and lysates were assayed for luciferase activity using a luciferase assay kit (Promega, Madison, WI) on GloMax-Multi+ Detection System (Promega). In second cycle assays, supernatants were collected from all conditions of the first cycle at 96 hpi and used for infection of fresh HFFs in 96-well plates. Luciferase activity was measured 72 h following second cycle infection. For HSV1-KOS/Dlux/oriS, a luciferase assay was performed at 24 hpi. […] After incubation at 37°C for 10 days (for HCMV), 3 days for MCMV or 2 days (for HSV), the overlay was removed and plaques were counted after crystal violet staining.

Another experiment relates to MDM2-p53. Kind of experiment: Co-immunoprecipitation MDM2-p53. It is filed as cell-based, human. As to conditions: emetine 75 nM, infected high-density cells, 24 hpi, MG132. How it is done:
(§2) Non-infected, infected or emetine-treated HFFs were treated with MG132 (10 μM) for 12h. Cells were harvested after 24 hpi and lysed with IP buffer containing 150 mM NaCl, 50mM Tris pH 7.5, 2 mM EDTA, 0.5% TritonX-100 and 0.5% NP-40-40. 1 mg of lysate was precleared with bead slurry for 30 min. The precleared lysates were incubated with anti-MDM2 (2 μg) antibody overnight. The antibody complexes were isolated using protein A/G beads (Santa Cruz), washed three times with 50% IP buffer. The immunoprecipitate-protein A/G beads were boiled in SDS sample buffer, and the supernatant was analyzed on SDS-PAGE gels after immunoblotting as described previously. 1% of the cell lysate used for IP was loaded on gels as ‘Input’. Confirmatory reverse IPs were performed as described in each experiment. Isotype control antibodies included: rabbit IgG polyclonal, mouse IgG2a kappa and mouse IgG2b kappa monoclonal (Abcam). Mouse monoclonal RPS19 antibody (Abcam) served as an additional negative control for the IPs. Densitometry analysis was performed to determine relative ratio of immunoprecipitated protein to its input level.

The subject of the next experiment is MDM2-IE2. Kind of experiment: Co-immunoprecipitation MDM2-IE2 in transfected HEK293 cells. It is filed as cell-based. As to conditions: IE1/2 transfection, emetine 75 nM or GCV 5 μM for 4 h. How it is done: HEK-293 cells seeded into 10 cm petri dishes were transfected with HCMV plasmid encoding IE1 and IE2 (pRL45), using Lipofectamine 2000 in serum free medium. After 6 h, 10% FBS containing media was added along with 10 μM of MG132. […] Cells were then harvested to prepare lysates for IP.
as §2

Another experiment relates to HCMV. Kind of experiment: Anti-HCMV activity in RPS14 knockdown cells (sh-RPS14). It is filed as cell-based, Human Cytomegalovirus. As to conditions: emetine 75 nM, luciferase, plaque reduction, viral proteins at 72 hpi. How it is done: as §1, with “In second cycle assays, supernatants were collected from all conditions of the first cycle at 96 hpi and used for infection of fresh HFFs in 96-well plates.” left out, “infection.” for “infection. For HSV1-KOS/Dlux/oriS, a luciferase assay was performed at 24 hpi.”
Human TRC lentiviral shRNA constructs (Sigma-Aldrich) were used for RPS14 knockdown (KD) in HFFs. […] Control HFFs and RPS14 KD HFFs were counted and equal number of cells was plated prior to infection or treatment.

Consider `CC[C@H]1CN2CCc3cc(OC)c(OC)cc3[C@@H]2C[C@@H]1C[C@H]1NCCc2cc(OC)c(OC)cc21` [emetine, emetine dihydrochloride hydrate], for which the EC50 (usually the concentration giving half of the maximal effect) in the experiment on HSV1- KOS/Dlux/oriS stood at 56 nM. For the same compound, in the experiment on HCMV Towne (addition after 12 h), the “anti-HCMV activity when added after infection (add-on)” value is reported as “loss of activity against HCMV”. Further, in the experiment with HCMV Towne (plaque assay), the “time compound is required to fully inhibit HCMV (removal assay)” value is “at least 24 h”. Also, the “increase in pp28-luciferase activity, second cycle infection, compared to infected control” value in experiment [1] (0.5 million cells/plate) was 1.5 fold. In addition, in experiment [1] (1 and 2 million cells/plate), the “pp28-luciferase activity, second cycle infection, compared to infected control” value is listed as “near complete inhibition”. Moreover, the “interaction between MDM2 and p53” value in the experiment on MDM2-p53 was “disrupted”. Further, the “interaction between MDM2 and IE2” value with MDM2-IE2 is recorded as “significantly decreased”. Moreover, in the experiment on HCMV, the “HCMV inhibition in high-density sh-RPS14 cells” value is listed as “unable to inhibit HCMV”.
